Data taken from patent US11104661B1, “Inhibiting human integrin (α-4) (β-7)” (Morphic Therapeutic, Inc., priority 2019, dated 2021).

Tests used:
[1] = target: T1, integrin α4β7 (Homo sapiens, UniProt P13612+P26010); experiment: Fluorescence polarization (FP) assay for α4β7 binding (Example 5); settings: competition with fluorescein-labeled peptide, 6.5 nM integrin α4β7, 2 mM manganese chloride; Table 4 comparative compounds
T1 sequence (P13612 35-977 limits assumed): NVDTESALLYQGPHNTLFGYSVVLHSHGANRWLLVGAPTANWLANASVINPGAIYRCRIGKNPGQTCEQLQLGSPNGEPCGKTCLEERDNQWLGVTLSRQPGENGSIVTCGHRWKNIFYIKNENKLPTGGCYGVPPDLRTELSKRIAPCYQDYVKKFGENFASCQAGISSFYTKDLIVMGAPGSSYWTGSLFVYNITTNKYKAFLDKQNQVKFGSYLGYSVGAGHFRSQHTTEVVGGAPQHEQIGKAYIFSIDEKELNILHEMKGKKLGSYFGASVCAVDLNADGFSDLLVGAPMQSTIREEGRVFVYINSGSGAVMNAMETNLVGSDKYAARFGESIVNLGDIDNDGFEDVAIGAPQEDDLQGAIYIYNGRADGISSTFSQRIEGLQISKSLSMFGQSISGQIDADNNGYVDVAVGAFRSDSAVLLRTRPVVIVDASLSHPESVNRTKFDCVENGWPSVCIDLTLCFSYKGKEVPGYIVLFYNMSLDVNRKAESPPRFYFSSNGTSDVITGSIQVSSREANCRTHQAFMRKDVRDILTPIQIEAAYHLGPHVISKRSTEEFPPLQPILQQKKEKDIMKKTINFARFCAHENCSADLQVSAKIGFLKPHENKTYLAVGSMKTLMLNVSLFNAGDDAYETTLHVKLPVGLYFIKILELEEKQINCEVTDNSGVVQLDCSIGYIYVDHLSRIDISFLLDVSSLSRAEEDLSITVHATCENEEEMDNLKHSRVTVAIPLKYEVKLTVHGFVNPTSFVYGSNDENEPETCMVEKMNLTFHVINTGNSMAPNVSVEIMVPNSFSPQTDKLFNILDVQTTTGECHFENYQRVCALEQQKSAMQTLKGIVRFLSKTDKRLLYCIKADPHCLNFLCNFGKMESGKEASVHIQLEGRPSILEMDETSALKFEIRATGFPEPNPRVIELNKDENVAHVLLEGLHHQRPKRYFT
T1 sequence (P26010 20-723 limits assumed): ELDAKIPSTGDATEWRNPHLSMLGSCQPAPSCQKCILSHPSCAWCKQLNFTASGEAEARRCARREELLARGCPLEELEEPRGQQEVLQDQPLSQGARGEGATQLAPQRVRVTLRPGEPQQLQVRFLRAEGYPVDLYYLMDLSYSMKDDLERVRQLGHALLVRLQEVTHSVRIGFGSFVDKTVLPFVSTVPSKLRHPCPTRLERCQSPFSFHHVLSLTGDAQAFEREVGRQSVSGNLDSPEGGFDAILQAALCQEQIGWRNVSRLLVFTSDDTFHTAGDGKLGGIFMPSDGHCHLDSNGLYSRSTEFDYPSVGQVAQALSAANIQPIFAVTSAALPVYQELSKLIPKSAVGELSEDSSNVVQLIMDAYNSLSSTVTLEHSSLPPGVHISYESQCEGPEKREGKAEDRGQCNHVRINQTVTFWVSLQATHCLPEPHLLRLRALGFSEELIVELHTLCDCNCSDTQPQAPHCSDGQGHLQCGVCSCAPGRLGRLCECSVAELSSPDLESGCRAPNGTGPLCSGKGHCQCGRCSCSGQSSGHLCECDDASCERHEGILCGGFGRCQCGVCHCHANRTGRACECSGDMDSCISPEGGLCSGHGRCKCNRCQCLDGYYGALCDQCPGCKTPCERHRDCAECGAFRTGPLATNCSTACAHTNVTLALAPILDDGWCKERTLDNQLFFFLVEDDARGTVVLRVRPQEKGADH
Method: Compounds of Formula (I) were evaluated using a fluorescent polarization (FP) assay. FP assays are used to evaluate potency of compounds on purified protein. The FP assays consists of measuring purified integrin αβ heterodimer ecto domains or headpiece binding to surrogate or truncated ligands.
(§1) Three in vitro assays were used to examine the α4β7 mechanistic process used by cells: 1) ligand:receptor affinity, 2) the avidity of those interactions on a cell's surface, and 3) how those interactions fare under an imposing force. In Example 5, a Fluorescence Polarization (FP) assay is used to measure compound activity through binding competition with the fluorescein-labeled peptide. In Example 6, the potency of compounds against α4β7 is measured in the cell-based ligand binding assay (LBA), using RPMI 8866 cells incubated with the compound samples in competition with soluble MAdCAM-1 ligand. In Example 7, activity of compounds is evaluated in a cell adhesion assay that mechanistically tests what occurs in vivo when trafficking cells utilize α4β7 to adhere to MAdCAM-1 expressing HEVs of the gut during the extravasation process. In the cell adhesion assay of Example 7, a MAdCAMI1-(Fc) is coated on plastic, and α4β7 expressing cells (RPMI-8866) are allowed to adhere to the coated surface in the presence of the test compounds. Next, the force of washing with buffer is applied to cells thereby testing the strength of that adhesion. Unattached cells are removed and the remaining adherent cells are quantified.
Fluorescence Polarization (FP) assays were used to measure compound activity through binding competition with the fluorescein-labeled peptide […]{Lys(FITC)}. In the assay, 6.5 nM of integrin α4β7 was incubated with the test compound in 2 mM manganese chloride, 0.1 mM calcium chloride, 20 mM HEPES buffer at pH 7.3, 150 mM sodium chloride, 0.01% Triton X-100, 2% DMSO, and 3 nM of the fluorescein-labeled peptide. Running the assays in 384-well plates, the integrin protein was pre-incubated with the test compounds for 15 minutes at 22° C. before the fluorescein-labeled peptide was added. After the fluorescein-labeled peptide was added, the assay was incubated at 22° C. for 1 hour and fluorescence polarization was measured. IC50 values were determined by nonlinear regression, four-parameter curve fitting.

[2] = target: T2, α4β7 (Homo sapiens, UniProt P13612+P26010); experiment: Cell adhesion assay, RPMI8866 cells on MAdCAM coated plates (Example 7); format: cell-based; settings: RPMI8866 cells adhering to recombinant human MAdCAM, read-out: CA Assay (Example 7)
T2 construct: endogenous in cells; host or cells: RPMI 8866 cells
T2 sequence (P13612 34-1032): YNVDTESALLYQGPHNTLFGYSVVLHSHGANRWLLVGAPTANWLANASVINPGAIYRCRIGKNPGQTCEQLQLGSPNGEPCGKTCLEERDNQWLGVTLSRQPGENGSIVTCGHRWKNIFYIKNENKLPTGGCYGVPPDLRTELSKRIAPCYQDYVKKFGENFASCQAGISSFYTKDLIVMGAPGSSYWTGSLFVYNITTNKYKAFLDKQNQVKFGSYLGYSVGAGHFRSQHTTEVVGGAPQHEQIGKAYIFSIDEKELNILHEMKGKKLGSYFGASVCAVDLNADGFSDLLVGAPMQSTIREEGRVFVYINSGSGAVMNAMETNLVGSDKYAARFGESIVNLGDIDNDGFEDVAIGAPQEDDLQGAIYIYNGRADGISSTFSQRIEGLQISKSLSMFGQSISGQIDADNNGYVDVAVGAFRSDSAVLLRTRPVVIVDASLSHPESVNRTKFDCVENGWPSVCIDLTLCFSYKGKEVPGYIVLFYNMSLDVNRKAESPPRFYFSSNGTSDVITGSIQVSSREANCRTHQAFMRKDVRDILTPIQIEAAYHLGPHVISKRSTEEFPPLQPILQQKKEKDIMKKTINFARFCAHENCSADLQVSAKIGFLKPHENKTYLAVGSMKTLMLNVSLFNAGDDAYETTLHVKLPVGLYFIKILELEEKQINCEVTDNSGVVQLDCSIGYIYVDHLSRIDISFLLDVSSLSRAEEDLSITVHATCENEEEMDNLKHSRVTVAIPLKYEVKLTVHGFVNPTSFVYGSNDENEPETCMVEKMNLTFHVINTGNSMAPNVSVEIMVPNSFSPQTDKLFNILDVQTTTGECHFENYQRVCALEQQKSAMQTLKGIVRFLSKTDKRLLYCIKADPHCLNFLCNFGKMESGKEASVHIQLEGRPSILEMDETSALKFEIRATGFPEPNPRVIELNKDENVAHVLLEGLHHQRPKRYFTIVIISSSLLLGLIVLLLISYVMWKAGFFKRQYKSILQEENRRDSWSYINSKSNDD
T2 sequence (P26010 20-798): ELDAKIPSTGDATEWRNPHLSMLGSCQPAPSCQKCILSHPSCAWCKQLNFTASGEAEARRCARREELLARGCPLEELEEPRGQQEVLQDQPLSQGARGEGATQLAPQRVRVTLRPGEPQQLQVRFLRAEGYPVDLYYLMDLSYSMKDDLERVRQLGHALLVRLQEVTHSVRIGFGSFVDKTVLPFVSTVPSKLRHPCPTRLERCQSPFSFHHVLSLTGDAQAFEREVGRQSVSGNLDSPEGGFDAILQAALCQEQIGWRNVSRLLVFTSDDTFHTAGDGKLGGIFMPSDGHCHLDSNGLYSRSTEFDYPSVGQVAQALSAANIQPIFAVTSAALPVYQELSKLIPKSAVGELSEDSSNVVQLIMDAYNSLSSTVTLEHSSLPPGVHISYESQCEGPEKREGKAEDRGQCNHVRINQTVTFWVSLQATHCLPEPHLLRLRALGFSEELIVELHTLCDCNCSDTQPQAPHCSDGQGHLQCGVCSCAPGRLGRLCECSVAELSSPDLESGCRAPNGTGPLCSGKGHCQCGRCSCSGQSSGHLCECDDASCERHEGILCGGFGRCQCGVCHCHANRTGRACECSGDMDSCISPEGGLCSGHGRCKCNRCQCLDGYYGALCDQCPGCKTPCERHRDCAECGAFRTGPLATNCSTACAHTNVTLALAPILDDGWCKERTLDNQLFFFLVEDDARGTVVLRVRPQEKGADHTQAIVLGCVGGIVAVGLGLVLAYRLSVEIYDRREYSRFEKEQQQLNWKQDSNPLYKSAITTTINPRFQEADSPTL
Method: as §1
Example 7 describes a cell adhesion assay.
To each well of a 96 well plate, 100 ug of recombinant human MAdCAM in 100 ul PBS is added and incubated overnight at 4° C. After incubation MAdCAM is removed by aspiration and 200 ul of PBS+1% BSA is added to block the plate for 2 hours at 37° C. and 5% CO2. During this incubation dilution curves of compound are made in 100% DMSO in 96 well V bottom plates. 1.75 ul of diluted compounds are then transferred to a new 96 well U bottom plate containing 20 ul of assay media (phosphate free DMEM+25 mM HEPES+1% BSA). To this an additional 155 ul of assay media is added with mixing by pipetting up and down. This mixture is allowed to incubate for 15 minutes at 37° C. and 5% CO2. After incubation 175 ul of assay media containing 2e6/mL RPMI8866 cells is added to compound containing wells without mixing and plate is allowed to incubate for another 15 minutes at 37° C. and 5% CO2. During this incubation MAdCAM coated plates are removed from incubator and washed twice with 200 ul PBS+0.1% BSA. […] This plate is then incubated at 37° C. and 5% CO2 for 1 hour. After incubation plates are washed twice with 200 ul and once with 50 ul of phenol free RPMI+1% BSA. A final 50 ul of phenol free RPMI+1% BSA is added to wells after last wash. Next 50 ul of Promega cell titer glow is added to the wells. Plate is incubated on shaker for 2 minutes at 200 RPM followed by another 8 minutes off shaker before having the luminescence read on a Biotek Citation 5 plate reader. Raw data is converted to % inhibition compared to bottom of curve and analyzed using a 4-parameter non linear curve in Prism to determine IC50 and IC90.

[3] = target: T2, α4β7; experiment: Cell-based MAdCAM-1 ligand binding assay (LBA) on RPMI 8866 cells (Example 6); settings: MAdCAM-1-Fc Dylight 650, 3 mM manganese chloride, flow cytometry, Table 4 comparative compounds, read-out: LB Assay (Example 6)
Source text: Compounds of Formula (I) were further evaluated using a Ligand binding assay (LBA) to examine compound potency of free ligand binding to receptors expressed on cells. The MAdCAM ligand binding assay uses flow cytometry to measure the binding of fluorescently-labeled MAdCAM-1-Fc to RPMI 8866 cells in the presence of Mn++. This assay assesses the binding of compounds to native full-length receptors on the cell surface. […] Ligand binding assays (LBA) are used to examine compound potency and selectivity of free ligand binding to receptors expressed on cells.
as §1
5 ul of 33 nM MAdCAM-1-Fc fluorescently labeled with Dylight 650 in 50 mM HEPES pH 7.3, 150 mM sodium chloride, and 1% bovine serum albumin was added to the cells. The samples were incubated for 45 minutes at room temperature, fixed with 0.8% formaldehyde for 30 minutes at room temperature, and washed with 50 mM Tris pH 7.5, 150 mM NaCl, 1 mM EDTA, and 1% bovine serum albumin. Fluorescence intensity for each cell was measured via flow cytometry. Dead cells were excluded from further analysis based on staining with the 780 fixable viability dye. Median fluorescence intensity for Dylight 650 was determined for each sample and concentration-response curves were analyzed for IC50 values using 4-parameter non-linear regression analysis.

IC50 [1] [nM] | SMILES | also measured
10 to 500 | Cc1cccc(C)c1-c1cncc([C@H](CC(=O)O)NC(=O)[C@@H](CC(C)C)n2ccccc2=O)c1 | –
> 500 | Cc1cccc(C)c1-c1cncc([C@@H](CC(=O)O)NC(=O)[C@@H](CC(C)C)n2ccccc2=O)c1 | –

Second part, the molecule before the results:

SMILES | IC50 [1] [nM] | also measured
Cc1cccc(C)c1-c1cncc([C@@H](CC(=O)O)NC(=O)[C@H](CC(C)C)n2ccccc2=O)c1 | > 500 | –
COC1CN(CCc2cn([C@H](CC(C)C)C(=O)N[C@@H](CC(=O)O)c3cc(-c4c(C)cccc4C)cc(Cl)c3F)c(=O)cc2C(F)(F)F)C1 [W-P2, (3S)-3-(5-chloro-4-fluoro-2′,6′-dimethyl-[1,1′-biphenyl]-3-yl)-3-(2-(5-(2-(3-methoxyazetidin-1-yl)ethyl)-2-oxo-4-(trifluoromethyl)pyridin-1(2H)-yl)-4-methylpentanamido)propanoic acid] | – | IC50 ([2]; Table 3): < 5 nM
Cc1ccccc1-c1cc([C@H](CC(=O)O)NC(=O)[C@H](CC(C)C)n2ccc(C(F)(F)F)cc2=O)cnc1C | – | IC50 ([2]; Table 4 comparative compounds): > 100 nM; IC50 [3]: 10 to 500 nM
